Source: patent publication US20210393932A1, “DERMAL PATCHES AND GLASS SWABS FOR APPLICATION OF TOPICAL IMMUNOSENSITIZERS” (Squarex, LLC, priority 2020, published 2021)
Values joined by “and” are separate entries in the source; they are usually repeats but may differ in a detail not shown here. Identical values can stand only once.

Experiment: Drug elution from SADBE dermal patches into pig skin (residual SADBE by HPLC)
Type: in vivo
Settings: for Percent of SADBE presumed in skin / SADBE area in kimwipe swab / SADBE area, 255 nm, 24 min. (extracted from patch) / net HPLC area of SADBE lost and presumed in skin: 2% SADBE in DMSO
Description: Squaric acid dibutyl ester (SADBE) at 2% (w/v) concentration in dimethylsulfoxide (DMSO) was added to a skin patch for dermal dosing of SADBE to test for a delayed-type hypersensitivity response or other skin irritation and to test how much SADBE disappears from the patch with different volumes and time of exposure, and is therefore presumed to enter the skin.
One purpose of this study was to determine the time course of drug elution from the dermal patches into the skin. For that purpose, patches were applied to the skin of pigs and removed 1, 3, 6, or 24 hours later, and then extracted to determine the amount of residual SADBE drug remaining in the patch. The missing SADBE from the amount originally loaded onto the patch is presumed to have transferred into the pig skin.
The skin patches consisted of a polymer backing layer similar to 3M 9916 polyester nonwoven backing layer with adhesive, 3M 9733 polyester film laminate barrier layer, and Precision Fabrics Group 0700-00010 polyester gauze layer. The gauze was heat sealed to the barrier layer. The gauze patch area was about 3 cm^2.
Patches were removed from the pigs at the indicated times and immediately the reservoir portion of the patch was cut out and placed in a 50 ml tube with 10 ml of DMSO.
Immediately after removing the patch, a kimwipe was used to swab the spot on the pig where the patch had been in order to attempt to recover any SADBE that was on the surface of the skin and had not absorbed into the skin. After wiping with the kimwipe, the kimwipe was placed in a separate 50 ml tube containing 10 ml of DMSO.
The tubes of DMSO with patches or kimwipe were transported to our laboratory, shaken at 200 rpm for 10 minutes, and then the DMSO from each tube was placed in an injection vial and analyzed for SADBE content by HPLC on a C18 column with the program SADBE3-50 ul. SADBE elutes in this program at about 24.0 minutes and absorbs at 255 nm, so the area of the 24.0 min peak at 255 nm was used to quantify SADBE.
This program is called SADBE3-50 ul on the HPLC, with 50 ul injection. Column: USP L1 (ODS), 250 mm×4.6 mm, 5 um (C18) • Agilent part number 880995-902 Mobile phase: A: 25 mM KH2PO4 (pH5) (not pH adjusted) • B: Methanol Flow rate: 1.0 mL/min
On Aug. 6, 2018, the first set of patches was placed on 3 pigs. The patches were all held in place on the pigs by an elastic bandage wrapped around the torso of each of the pigs over the patches. The net HPLC area of SADBE lost and presumed in skin is calculated as the area predicted from the 20 ul and 50 ul controls minus the observed HPLC area of SADBE extracted from the test patch that was applied to skin.
SADBE patch testing on pigs 4 and 5 was done on Aug. 13, 2018. In this case, patches on both pigs were covered with TEGADERM™, and on one pig the TEGADERM™ was further covered by an elastic bandage as on August 6.
Summary and Conclusions of Drug Elution from Patches: The percentage of SADBE lost from the patch, and therefore presumed to be transferred into the skin, was calculated for each patch and the results for a given volume (volume of 2% SADBE solution loaded onto the patch) and time point (time patch was on the pig) were averaged, broken down by whether an elastic bandage held the patch in place on the pig or not, was averaged.

[1] = 20 ul on patch, removed at 1 h, elastic bandage (Aug. 6)
[2] = 20 ul on patch, removed at 3 h, elastic bandage (Aug. 6)
[3] = 20 ul on patch, removed at 6 h, elastic bandage (Aug. 6)
[4] = 20 ul on patch, removed at 24 h, elastic bandage (Aug. 6)
[5] = 20 ul, removed at 3 h, TEGADERM, Ace bandage no (Aug. 13)
[6] = 20 ul, removed at 3 h, TEGADERM, Ace bandage yes (Aug. 13)
[7] = 20 ul, removed at 6 h, TEGADERM, Ace bandage no (Aug. 13)
[8] = 20 ul, removed at 6 h, TEGADERM, Ace bandage yes (Aug. 13)
[9] = 50 ul on patch, removed at 1 h, elastic bandage (Aug. 6)
[10] = 50 ul on patch, removed at 3 h, elastic bandage (Aug. 6)
[11] = 50 ul on patch, removed at 6 h, elastic bandage (Aug. 6)
[12] = 50 ul on patch, removed at 24 h, elastic bandage (Aug. 6)
[13] = 50 ul, removed at 3 h, TEGADERM, Ace bandage no (Aug. 13)
[14] = 50 ul, removed at 3 h, TEGADERM, Ace bandage yes (Aug. 13)
[15] = 50 ul, removed at 6 h, TEGADERM, Ace bandage no (Aug. 13)
[16] = 50 ul, removed at 6 h, TEGADERM, Ace bandage yes (Aug. 13)
[17] = 80 ul on patch, removed at 1 h, elastic bandage (Aug. 6)
[18] = 80 ul on patch, removed at 3 h, elastic bandage (Aug. 6)
[19] = 80 ul on patch, removed at 6 h, elastic bandage (Aug. 6)
[20] = 80 ul on patch, removed at 24 h, elastic bandage (Aug. 6)

CCCCOc1c(OCCCC)c(=O)c1=O [SADBE, squaric acid dibutyl ester]
Percent of SADBE presumed in skin [1]: 42.8% and 45.8% | SADBE area in kimwipe swab [1]: 35 and 39 | SADBE area, 255 nm, 24 min. (extracted from patch) [1]: 1941 and 1838 | net HPLC area of SADBE lost and presumed in skin [1]: 1452 and 1555 | Percent of SADBE presumed in skin [2]: 78.3% and 71.9% | SADBE area in kimwipe swab [2]: 38 and 44 | SADBE area, 255 nm, 24 min. (extracted from patch) [2]: 735 and 954 | net HPLC area of SADBE lost and presumed in skin [2]: 2658 and 2439 | Percent of SADBE presumed in skin [3]: 92.2% and 92.8% | SADBE area in kimwipe swab [3]: 40 and 50 | SADBE area, 255 nm, 24 min. (extracted from patch) [3]: 265 and 244 | net HPLC area of SADBE lost and presumed in skin [3]: 3128 and 3149 | Percent of SADBE presumed in skin [4]: 94.6% and 95.5% | SADBE area in kimwipe swab [4]: 19 and 21 | SADBE area, 255 nm, 24 min. (extracted from patch) [4]: 182 and 151 | net HPLC area of SADBE lost and presumed in skin [4]: 3211 and 3242 | Percent of SADBE presumed in skin [5]: 60.4% and 38.0% | SADBE area, 255 nm, 24 min. (extracted from patch) [5]: 1327 and 2076 | net HPLC area of SADBE lost and presumed in skin [5]: 2021 and 1272 | Percent of SADBE presumed in skin [6]: 77.5% and 74.9% | SADBE area, 255 nm, 24 min. (extracted from patch) [6]: 753 and 842 | net HPLC area of SADBE lost and presumed in skin [6]: 2595 and 2506 | Percent of SADBE presumed in skin [7]: 88.4% and 70.5% | net HPLC area of SADBE lost and presumed in skin [7]: 2960 and 2362 | Percent of SADBE presumed in skin [8]: 90.2% and 88.4% | SADBE area, 255 nm, 24 min. (extracted from patch) [8]: 328 and 390 | net HPLC area of SADBE lost and presumed in skin [8]: 3020 and 2958 | Percent of SADBE presumed in skin [9]: 38.1% and 43.0% | SADBE area in kimwipe swab [9]: 78 and 75 | SADBE area, 255 nm, 24 min. (extracted from patch) [9]: 5108 and 4698 | net HPLC area of SADBE lost and presumed in skin [9]: 3141 and 3551 | Percent of SADBE presumed in skin [10]: 67.2% and 78.9% | SADBE area in kimwipe swab [10]: 52 and 78 | SADBE area, 255 nm, 24 min. (extracted from patch) [10]: 2707 and 1741 | net HPLC area of SADBE lost and presumed in skin [10]: 5542 and 6508 | Percent of SADBE presumed in skin [11]: 84.9% and 91.9% | SADBE area in kimwipe swab [11]: 50 and 45 | SADBE area, 255 nm, 24 min. (extracted from patch) [11]: 1243 and 666 | net HPLC area of SADBE lost and presumed in skin [11]: 7006 and 7583 | Percent of SADBE presumed in skin [12]: 97.3% and 98.4% | SADBE area in kimwipe swab [12]: 20 and 22 | SADBE area, 255 nm, 24 min. (extracted from patch) [12]: 224 and 128 | net HPLC area of SADBE lost and presumed in skin [12]: 8025 and 8121 | Percent of SADBE presumed in skin [13]: 50.8% and 56.9% | SADBE area, 255 nm, 24 min. (extracted from patch) [13]: 4058 and 3549 | net HPLC area of SADBE lost and presumed in skin [13]: 4184 and 4693 | Percent of SADBE presumed in skin [14]: 57.7% and 32.1% | SADBE area, 255 nm, 24 min. (extracted from patch) [14]: 3484 and 5599 | net HPLC area of SADBE lost and presumed in skin [14]: 4758 and 2643 | Percent of SADBE presumed in skin [15]: 70.2% and 54.9% | SADBE area, 255 nm, 24 min. (extracted from patch) [15]: 2454 and 3717 | net HPLC area of SADBE lost and presumed in skin [15]: 5788 and 4525 | Percent of SADBE presumed in skin [16]: 76.4% and 83.3% | SADBE area, 255 nm, 24 min. (extracted from patch) [16]: 1949 and 1376 | net HPLC area of SADBE lost and presumed in skin [16]: 6293 and 6866 | Percent of SADBE presumed in skin [17]: 24.6% and 30.2% | SADBE area in kimwipe swab [17]: 105 and 98 | SADBE area, 255 nm, 24 min. (extracted from patch) [17]: 9952 and 9208 | net HPLC area of SADBE lost and presumed in skin [17]: 3246 and 3990 | Percent of SADBE presumed in skin [18]: 27.9% and 49.0% | SADBE area, 255 nm, 24 min. (extracted from patch) [18]: 9517 and 6734 | net HPLC area of SADBE lost and presumed in skin [18]: 3681 and 6464 | Percent of SADBE presumed in skin [19]: 83.4% and 81.3% | SADBE area, 255 nm, 24 min. (extracted from patch) [19]: 2192 and 2471 | net HPLC area of SADBE lost and presumed in skin [19]: 11006 and 10727 | Percent of SADBE presumed in skin [20]: 96.1% and 97.9% | SADBE area in kimwipe swab [20]: 24 and 20 | SADBE area, 255 nm, 24 min. (extracted from patch) [20]: 509 and 273 | net HPLC area of SADBE lost and presumed in skin [20]: 12689 and 12925 | loaded drug transferred into the skin (by 6 hours, all loading volumes tested, with the elastic bandage): over 80% | loaded drug transferred into the skin (by 24 hours): over 95% | Average transfer of SADBE into skin (with elastic bandage, 20 ul of 2% SADBE, patch worn 1 hour): 44.3% (n = 2) | Average transfer of SADBE into skin (with elastic bandage, 20 ul of 2% SADBE, patch worn 3 hours): 75.6% (n = 4) | Average transfer of SADBE into skin (with elastic bandage, 20 ul of 2% SADBE, patch worn 6 hours): 90.9% (n = 4) | Average transfer of SADBE into skin (with elastic bandage, 20 ul of 2% SADBE, patch worn 24 hours): 95.1% (n = 2) | Average transfer of SADBE into skin (with elastic bandage, 50 ul of 2% SADBE, patch worn 1 hour): 40.6% (n = 2) | Average transfer of SADBE into skin (with elastic bandage, 50 ul of 2% SADBE, patch worn 3 hours): 59.0% (n = 4) | Average transfer of SADBE into skin (with elastic bandage, 50 ul of 2% SADBE, patch worn 6 hours): 84.1% (n = 4) | Average transfer of SADBE into skin (with elastic bandage, 50 ul of 2% SADBE, patch worn 24 hours): 97.9% (n = 2) | Average transfer of SADBE into skin (with elastic bandage, 80 ul of 2% SADBE, patch worn 1 hour): 27.4% (n = 2) | Average transfer of SADBE into skin (with elastic bandage, 80 ul of 2% SADBE, patch worn 3 hours): 38.4% (n = 2) | Average transfer of SADBE into skin (with elastic bandage, 80 ul of 2% SADBE, patch worn 6 hours): 82.3% (n = 2) | Average transfer of SADBE into skin (with elastic bandage, 80 ul of 2% SADBE, patch worn 24 hours): 97.0% (n = 2) | Average transfer of SADBE into skin (without elastic bandage, 20 ul of 2% SADBE, patch worn 3 hours): 49.2% (n = 2) | Average transfer of SADBE into skin (without elastic bandage, 20 ul of 2% SADBE, patch worn 6 hours): 79.5% (n = 2) | Average transfer of SADBE into skin (without elastic bandage, 50 ul of 2% SADBE, patch worn 3 hours): 53.9% (n = 2) | Average transfer of SADBE into skin (without elastic bandage, 50 ul of 2% SADBE, patch worn 6 hours): 62.6% (n = 2)
